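How tested: cells in 96-well plates exposed to compound for 48 hours at five concentrations. Definition used: TGI = concentration required for complete inhibition of growth.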
Assays:
Test in all cases: inhibition of tumour cell growth, NCI panel, 48 h
PC-3 prostate = test system: PC-3 prostate
OVCAR-4 ovarian = test system: OVCAR-4 ovarian
HCT-116 colon = test system: HCT-116 colon
SNB-19 CNS = test system: SNB-19 CNS
MCF7 breast = test system: MCF7 breast
MOLT-4 leukemia = test system: MOLT-4 leukemia
SF-268 CNS = test system: SF-268 CNS
M14 melanoma = test system: M14 melanoma
RXF 393 renal = test system: RXF 393 renal
HT29 colon = test system: HT29 colon
OVCAR-5 ovarian = test system: OVCAR-5 ovarian
SR leukemia = test system: SR leukemia
COLO 205 colon = test system: COLO 205 colon
SNB-75 CNS = test system: SNB-75 CNS
OVCAR-8 ovarian = test system: OVCAR-8 ovarian
MDA-MB-435 = test system: MDA-MB-435
SK-MEL-5 melanoma = test system: SK-MEL-5 melanoma
A498 renal = test system: A498 renal
MDA-N = test system: MDA-N
SK-MEL-2 melanoma = test system: SK-MEL-2 melanoma
CAKI-1 renal = test system: CAKI-1 renal
TK-10 renal = test system: TK-10 renal
NCI-H226 lung = test system: NCI-H226 lung
RPMI-8226 leukemia = test system: RPMI-8226 leukemia
T-47D breast = test system: T-47D breast
UO-31 renal = test system: UO-31 renal
SW-620 colon = test system: SW-620 colon
KM12 colon = test system: KM12 colon
A549 NSCLC = test system: A549 NSCLC
EKVX NSCLC = test system: EKVX NSCLC
SF-295 CNS = test system: SF-295 CNS
IGROV1 ovarian = test system: IGROV1 ovarian
MDA-MB-231 breast = test system: MDA-MB-231 breast
SK-MEL-28 melanoma = test system: SK-MEL-28 melanoma
MALME-3M melanoma = test system: MALME-3M melanoma
SN12C renal = test system: SN12C renal
HOP-62 NSCLC = test system: HOP-62 NSCLC
ACHN renal = test system: ACHN renal
OVCAR-3 ovarian = test system: OVCAR-3 ovarian
BT-549 breast = test system: BT-549 breast
UACC-62 melanoma = test system: UACC-62 melanoma
HS 578T breast = test system: HS 578T breast
NCI-H23 lung = test system: NCI-H23 lung
NCI-H460 lung = test system: NCI-H460 lung
CCRF-CEM leukemia = test system: CCRF-CEM leukemia
HCC-2998 colon = test system: HCC-2998 colon
NCI/ADR-RES ovarian = test system: NCI/ADR-RES ovarian
U251 CNS = test system: U251 CNS
NCI-H522 lung = test system: NCI-H522 lung
UACC-257 melanoma = test system: UACC-257 melanoma
SK-OV-3 ovarian = test system: SK-OV-3 ovarian
HL-60(TB) leukemia = test system: HL-60(TB) leukemia
K-562 leukemia = test system: K-562 leukemia
786-0 renal = test system: 786-0 renal
DU-145 prostate = test system: DU-145 prostate
HCT-15 colon = test system: HCT-15 colon
LOX IMVI melanoma = test system: LOX IMVI melanoma
HOP-92 NSCLC = test system: HOP-92 NSCLC
SF-539 CNS = test system: SF-539 CNS

Cc1ccc(CCCCCOc2ccc(C3=NCCO3)cc2)s1 showed a TGI (PC-3 prostate) greater than 100 µM, a TGI (OVCAR-4 ovarian) greater than 100 µM and a TGI (HCT-116 colon) greater than 100 µM. The TGI (SNB-19 CNS) was greater than 100 µM, the TGI (MCF7 breast) was greater than 100 µM and the TGI (MOLT-4 leukemia) was greater than 100 µM. It also gave a TGI (SF-268 CNS) greater than 100 µM, a TGI (M14 melanoma) greater than 100 µM and a TGI (RXF 393 renal) greater than 100 µM. For the same compound, the TGI (HT29 colon) was greater than 100 µM, the TGI (OVCAR-5 ovarian) was greater than 100 µM and the TGI (SR leukemia) was greater than 100 µM. It also gave a TGI (COLO 205 colon) greater than 100 µM, a TGI (SNB-75 CNS) greater than 100 µM and a TGI (OVCAR-8 ovarian) greater than 100 µM. For the same compound, the TGI (MDA-MB-435) was greater than 100 µM, the TGI (SK-MEL-5 melanoma) was greater than 100 µM and the TGI (A498 renal) was 4.47 µM. It also gave a TGI (MDA-N) of 62.6 µM, a TGI (SK-MEL-2 melanoma) greater than 100 µM and a TGI (CAKI-1 renal) greater than 100 µM. For the same compound, the TGI (TK-10 renal) was greater than 100 µM, the TGI (NCI-H226 lung) was greater than 100 µM and the TGI (RPMI-8226 leukemia) was greater than 100 µM. For the same compound, the TGI (T-47D breast) was greater than 100 µM, the TGI (UO-31 renal) was greater than 100 µM and the TGI (SW-620 colon) was greater than 100 µM. It also gave a TGI (KM12 colon) greater than 100 µM, a TGI (A549 NSCLC) greater than 100 µM and a TGI (EKVX NSCLC) greater than 100 µM. It also gave a TGI (SF-295 CNS) greater than 100 µM, a TGI (IGROV1 ovarian) greater than 100 µM and a TGI (MDA-MB-231 breast) greater than 100 µM. It also gave a TGI (SK-MEL-28 melanoma) greater than 100 µM, a TGI (MALME-3M melanoma) greater than 100 µM and a TGI (SN12C renal) greater than 100 µM. The TGI (HOP-62 NSCLC) was greater than 100 µM, the TGI (ACHN renal) was greater than 100 µM and the TGI (OVCAR-3 ovarian) was greater than 100 µM. For the same compound, the TGI (BT-549 breast) was greater than 100 µM, the TGI (UACC-62 melanoma) was greater than 100 µM and the TGI (HS 578T breast) was greater than 100 µM. The TGI (NCI-H23 lung) was greater than 100 µM, the TGI (NCI-H460 lung) was greater than 100 µM and the TGI (CCRF-CEM leukemia) was greater than 100 µM. The TGI (HCC-2998 colon) was greater than 100 µM, the TGI (NCI/ADR-RES ovarian) was greater than 100 µM and the TGI (U251 CNS) was greater than 100 µM. It also gave a TGI (NCI-H522 lung) greater than 100 µM, a TGI (UACC-257 melanoma) greater than 100 µM and a TGI (SK-OV-3 ovarian) greater than 100 µM. For the same compound, the TGI (HL-60(TB) leukemia) was greater than 100 µM, the TGI (K-562 leukemia) was greater than 100 µM and the TGI (786-0 renal) was greater than 100 µM. For the same compound, the TGI (DU-145 prostate) was greater than 100 µM and the TGI (HCT-15 colon) was greater than 100 µM.

COc1cc(/C=C2\CC3C4CC[C@H]5C[C@@H](O)CC[C@]5(C)C4CC[C@]3(C)C2=O)cc(OC)c1OC (stereo not given in full) gave a TGI (PC-3 prostate) greater than 100 µM, a TGI (OVCAR-4 ovarian) of 57.2 µM and a TGI (HCT-116 colon) of 43.6 µM. The TGI (SNB-19 CNS) was greater than 100 µM, the TGI (MCF7 breast) was 28.6 µM and the TGI (MOLT-4 leukemia) was 69.5 µM. For the same compound, the TGI (SF-268 CNS) was greater than 100 µM, the TGI (M14 melanoma) was 61 µM and the TGI (RXF 393 renal) was greater than 100 µM. It also gave a TGI (HT29 colon) greater than 100 µM, a TGI (OVCAR-5 ovarian) greater than 100 µM and a TGI (COLO 205 colon) of 26.1 µM. For the same compound, the TGI (SNB-75 CNS) was 79.7 µM, the TGI (OVCAR-8 ovarian) was greater than 100 µM and the TGI (MDA-MB-435) was 85.8 µM. The TGI (SK-MEL-5 melanoma) was 22 µM, the TGI (A498 renal) was 75.5 µM and the TGI (MDA-N) was greater than 100 µM. It also gave a TGI (SK-MEL-2 melanoma) of 33.7 µM, a TGI (CAKI-1 renal) of 44.9 µM and a TGI (TK-10 renal) greater than 100 µM. The TGI (NCI-H226 lung) was 86.1 µM, the TGI (RPMI-8226 leukemia) was 27.8 µM and the TGI (LOX IMVI melanoma) was 32.6 µM. For the same compound, the TGI (T-47D breast) was 34.8 µM, the TGI (UO-31 renal) was 31.7 µM and the TGI (SW-620 colon) was greater than 100 µM. The TGI (KM12 colon) was 73.7 µM, the TGI (A549 NSCLC) was greater than 100 µM and the TGI (EKVX NSCLC) was greater than 100 µM. It also gave a TGI (SF-295 CNS) of 21.5 µM, a TGI (IGROV1 ovarian) greater than 100 µM and a TGI (MDA-MB-231 breast) greater than 100 µM. The TGI (SK-MEL-28 melanoma) was greater than 100 µM, the TGI (MALME-3M melanoma) was 49.1 µM and the TGI (SN12C renal) was 95.3 µM. For the same compound, the TGI (HOP-62 NSCLC) was 49.2 µM, the TGI (ACHN renal) was 45.8 µM and the TGI (BT-549 breast) was greater than 100 µM. It also gave a TGI (UACC-62 melanoma) of 44.9 µM, a TGI (HS 578T breast) greater than 100 µM and a TGI (NCI-H23 lung) greater than 100 µM. For the same compound, the TGI (HOP-92 NSCLC) was greater than 100 µM, the TGI (NCI-H460 lung) was 38.9 µM and the TGI (CCRF-CEM leukemia) was greater than 100 µM. It also gave a TGI (HCC-2998 colon) of 34.9 µM, a TGI (NCI/ADR-RES ovarian) greater than 100 µM and a TGI (U251 CNS) of 41.5 µM. The TGI (NCI-H522 lung) was 43.3 µM, the TGI (SF-539 CNS) was 98.2 µM and the TGI (UACC-257 melanoma) was greater than 100 µM. The TGI (SK-OV-3 ovarian) was 52.9 µM, the TGI (HL-60(TB) leukemia) was 43.2 µM and the TGI (K-562 leukemia) was greater than 100 µM. The TGI (786-0 renal) was greater than 100 µM, the TGI (DU-145 prostate) was greater than 100 µM and the TGI (HCT-15 colon) was greater than 100 µM.

Compound C/C=C/C=C\C1OC(O)([C@H](CC)C(=O)NC/C=C/C=C(\C)[C@H](OC)C(C)C2OC(\C=C/C=C/C=C(\C)C(=O)c3c(O)ccn(C)c3=O)[C@H](O)[C@@H]2O)C(O)C(O)C1(C)C (stereo not given in full) has a TGI (PC-3 prostate) greater than 100 µM, a TGI (OVCAR-4 ovarian) greater than 100 µM and a TGI (HCT-116 colon) greater than 100 µM. For the same compound, the TGI (SNB-19 CNS) was greater than 100 µM, the TGI (MCF7 breast) was greater than 100 µM and the TGI (MOLT-4 leukemia) was greater than 100 µM. For the same compound, the TGI (SF-268 CNS) was greater than 100 µM, the TGI (M14 melanoma) was greater than 100 µM and the TGI (RXF 393 renal) was greater than 100 µM. For the same compound, the TGI (HT29 colon) was greater than 100 µM, the TGI (OVCAR-5 ovarian) was greater than 100 µM and the TGI (COLO 205 colon) was greater than 100 µM. For the same compound, the TGI (SNB-75 CNS) was greater than 100 µM, the TGI (OVCAR-8 ovarian) was greater than 100 µM and the TGI (MDA-MB-435) was greater than 100 µM. For the same compound, the TGI (SK-MEL-5 melanoma) was greater than 100 µM, the TGI (A498 renal) was greater than 100 µM and the TGI (MDA-N) was greater than 100 µM. It also gave a TGI (SK-MEL-2 melanoma) greater than 100 µM, a TGI (CAKI-1 renal) greater than 100 µM and a TGI (TK-10 renal) greater than 100 µM. It also gave a TGI (NCI-H226 lung) greater than 100 µM, a TGI (RPMI-8226 leukemia) greater than 100 µM and a TGI (LOX IMVI melanoma) greater than 100 µM. The TGI (T-47D breast) was greater than 100 µM, the TGI (UO-31 renal) was greater than 100 µM and the TGI (SW-620 colon) was greater than 100 µM. For the same compound, the TGI (KM12 colon) was greater than 100 µM, the TGI (A549 NSCLC) was greater than 100 µM and the TGI (EKVX NSCLC) was greater than 100 µM. The TGI (SF-295 CNS) was greater than 100 µM, the TGI (IGROV1 ovarian) was greater than 100 µM and the TGI (MDA-MB-231 breast) was greater than 100 µM. The TGI (SK-MEL-28 melanoma) was greater than 100 µM, the TGI (SN12C renal) was greater than 100 µM and the TGI (HOP-62 NSCLC) was greater than 100 µM. The TGI (ACHN renal) was greater than 100 µM, the TGI (OVCAR-3 ovarian) was greater than 100 µM and the TGI (BT-549 breast) was greater than 100 µM. The TGI (UACC-62 melanoma) was greater than 100 µM, the TGI (HS 578T breast) was greater than 100 µM and the TGI (NCI-H23 lung) was greater than 100 µM. It also gave a TGI (HOP-92 NSCLC) greater than 100 µM, a TGI (NCI-H460 lung) greater than 100 µM and a TGI (CCRF-CEM leukemia) greater than 100 µM. It also gave a TGI (HCC-2998 colon) greater than 100 µM, a TGI (NCI/ADR-RES ovarian) greater than 100 µM and a TGI (U251 CNS) greater than 100 µM. It also gave a TGI (NCI-H522 lung) greater than 100 µM, a TGI (SF-539 CNS) greater than 100 µM and a TGI (UACC-257 melanoma) greater than 100 µM. For the same compound, the TGI (SK-OV-3 ovarian) was greater than 100 µM, the TGI (HL-60(TB) leukemia) was greater than 100 µM and the TGI (K-562 leukemia) was greater than 100 µM. The TGI (786-0 renal) was greater than 100 µM, the TGI (DU-145 prostate) was greater than 100 µM and the TGI (HCT-15 colon) was greater than 100 µM.

From PubChem BioAssay (NCI)
